{"source": "patent US10927115B2", "about": "“Substituted heterocycles for targeting Hsp90” (Duke University, priority 2012, dated 2021)", "key": {"BT474": {"tested_on": "BT474", "experiment": "Fluorescence microscopy uptake of probe in tumor cells", "type": "cell-based, human", "details": "micromolar concentrations, FIG. 4", "text": "(§1) In one experiment, the fluorescein compound 10 was applied at micromolar concentrations to four types of tumor cells. […] The probe (10) fluoresces to give green staining in images obtained; in FIG. 4, the green staining appears white."}, "MDA-MB 468": {"tested_on": "MDA-MB 468", "experiment": "Fluorescence microscopy uptake of probe in tumor cells", "type": "cell-based, human", "details": "micromolar concentrations, FIG. 4", "text": "as §1"}, "xenografts (MDA-MB 468)": {"tested_on": "xenografts (MDA-MB 468)", "experiment": "Confocal analysis of xenograft tissue slices after IP injection", "type": "in vivo", "details": "harvested one hour after injection (IP), FIG. 8", "protocol": "Tissue slices were prepared from the harvested xenografts and prepared for analysis by confocal analysis. […] A tissue slice from the control experiment is shown in which the animal was injected with vehicle alone (DMSO). Only background fluorescence is detected. In FIG. 8 the green staining from compound 10 fluorescence appears white or light gray, while blue from the DAPI-stained nuclei appears dark gray."}, "[1]": {"tested_on": "MDA-MB-468 tumor-bearing mice", "experiment": "Biodistribution of compound 10 in mouse xenografts by flow cytometry", "type": "in vivo, NOD/SCID mice", "details": "1 mg/mouse intraperitoneally, 2, 24, 48 or 72 hours", "protocol": "MDA-MB-468 cells (5M cells/mouse) were injected to the flank of NOD/SCID mice. When tumors reached 5-10 mm in diameter, tumor-bearing mice were intraperitoneally injected with compound 10 (1 mg/mouse, in 100 μL of DMSO). After 2, 24, 48 or 72 hours, mice were sacrificed and tumors, livers and spleens were harvested. Tumors and livers were digested with collagenase/hyarulonidase/DNase for 1 hour at 37° C., and ficolled to eliminate debris and dead cells, and then washed. Cells in tumor digest were labeled with anti-mouse CD45-biotin+anti-H2-kD-biotin for 15 min on ice, and then 15 min with streptavidin-APC. Tumor cells were analyzed by flow cytometry to detect fluorescence from compound 10. Mouse lineage negative cells were gated for the analysis. Spleen were minced and passed through the strainer. Splenocytes, liver cells and tumor cells were analyzed by flow cytometry to detect fluorescence from compound 10.\nSpleen were minced and passed through a strainer to get rid of aggregations/membranous tissue. Cells were stained with violet viability dye. Viable cells were analyzed for their compound 10 uptake.\nLiver tissues were minced with blades and digested with triple enzyme buffer (collagenase III, hyarulonidase, DNAse) for 1 h at 37° C., and cells were passed through a strainer to get rid of aggregations. Cells were stained with violet viability dye. Viable cells were analyzed for their compound 10 uptake.\nTumor tissues were minced with blades and digested with triple enzyme buffer (collagenase III, hyarulonidase, DNAse) for 1 h at 37° C., and cells were passed through a strainer to get rid of aggregations. Cells were stained with anti-mouse CD45-biotin/anti-H2-kd-biotin and then streptavidin-APC and violet viability dye. Viable and CD45/H2-kd negative cells were analyzed for their compound 10 uptake."}, "MDA-MB-468 tumor": {"tested_on": "MDA-MB-468 tumor", "experiment": "Tumor labeling experiment, frozen sections under fluorescent microscope", "type": "in vivo, NOD/SCID mice", "details": "1 mg/mouse intraperitoneal; from 2 to 48 h; FIG. 12", "protocol": "MDA-MB-468 tumor cells (5 M cells/mouse) were injected to the flank of NOD/SCID mice. After 3 weeks, tumor volumes reached 400-450 mm^3. Mice were treated/untreated with intraperitoneal injection of compound 10 (1 mg/mouse). After 2, 24, 48 and 72 hours, mice were sacrificed, and tumor tissues were frozen in OCT compound. FITC(+) cells in tumor tissues (frozen sections) were analyzed under fluorescent microscope (Axio Observer). In FIG. 12, the green staining from compound 10 fluorescence appears white or light gray."}, "Hsp90": {"tested_on": "Hsp90", "experiment": "Recovery of compound 10 bound to purified Hsp90 by microanion exchange chromatography", "type": "binding, pig", "details": "excess compound 10, dialysis; Western blot and mass spectrometry; FIG. 13A", "protocol": "Hsp90 was purified from pig mammary gland as described in Hughes et al., Bioorg Med Chem. 2012, 20(10):3298-3305. The purified protein (0.3 g) was mixed with an excess of compound 10. The unbound probe was removed by dialysis and the labeled protein subjected to microanion exchange chromatography using a Pharmacia SMART system. Column fractions (100 μL) were collected and analyzed for fluorescence in a plate reader. […] The chromatography experiment was then repeated on cell extracts prepared from MCF7 and BT474 cells treated with compound 10."}, "MCF cells": {"tested_on": "MCF cells", "experiment": "Heat treatment of cells, compound 10 uptake, micro anion-exchange chromatography of extracts", "type": "cell-based", "details": "10 μM, FIG. 13B", "protocol": "MCF cells were heated to 42° C. or maintained at 37° C. for 60 minutes. Compound 10 was added (10 μM) and after 60 minutes the cells harvested. Extracts were prepared and separated by micro anion-exchange chromatography. Column fractions were analyzed for the presence of compound 10."}, "MDA MB 468 xenografts": {"tested_on": "MDA MB 468 xenografts", "experiment": "Fluorescence imaging of HSP90 expression in mouse xenografts (IVIS imager, plate reader)", "type": "in vivo, Mice", "protocol": "Mice with MDA MB 468 xenografts were injected with either 0.1, 0.5 or 1 mg of compound 10 intravenously. The animals were then immediately imaged in real time in an IVIS Kinetic imager (Caliper Life Science) for the presence of fluorescence at 465ex/520em. After two hours the tumors were excised and examined for the presence of compound 10.\nRed image (false, 1 vs. 2) clearly demarks the tumor over background signal (appearing very dark gray in FIG. 14A).\nMeasurements were made in the IVIS imager or by preparing cells extracts from the tumors and measuring their fluorescence in a microtitre plate reader."}, "[2]": {"tested_on": "TZM-bl (Hela derived) cells infected with NL4.3 virus (HIV-1)", "experiment": "Confocal microscopy of cells infected with HIV-1 treated with compound 10", "type": "cell-based", "protocol": "TZM-bl (Hela derived) cells were added on glass coverslips in 24-well plates (1×10^5 cells/well) and were allowed to attach to cover slips overnight. For infection NL4.3 virus (HIV-1) was added to medium to achieve 10 ng/mL P24 protein concentration along with DEAE dextran at a final concentration 15 μg/mL. After 48 hours of infection, compound 10 was added to the medium and incubated for 1 hour at 37° C. Later the infected cells were washed twice with phosphate-buffered saline (PBS) and fixed for 20 min in 4% paraformaldehyde. They were washed twice with PBS and permeabilized for 30 min in 50% ice cold methanol on ice. Blocking was carried out using 1% FBS for 30 minutes at room temperature after two washes with PBS. Cells were then incubated for 2 hours at room temperature with antibody against HIV-1 capsid protein P24 at 1:100 dilutions in PBS. The antibody was obtained from the AIDS Reference and Reagent Program (HIV-1 p24 Monoclonal Antibody-183-H12-5C, Catalogue number: 3537). The cells were washed three times in PBS before and after 1 h of incubation with anti-mouse Texas Red secondary antibody (1:250). (Texas Red® Goat Anti-Mouse IgG (H+L), catalogue number: T682, Life technologies). […]"}}}
{"compound": "Cc1nn(-c2ccc(C(N)=O)c(NCCCOCCOCCOCCOCCOCCCNC(=S)Nc3ccc4c(c3)C(=O)OC43c4ccc(O)cc4Oc4cc(O)ccc43)c2)c2c1C(=O)CC(C)(C)C2", "note": "[Compound 10, 2-((1-((3′,6′-dihydroxy-3-oxo-3H-spiro[isobenzofuran-1,9′-xanthen]-5-yl)amino)-1-thioxo-6,9,12,15,18-pentaoxa-2-azahenicosan-21-yl)amino)-4-(3,6,6-trimethyl-4-oxo-4,5,6,7-tetrahydro-1H-indazol-1-yl)benzamide]", "values": [{"measurement": "uptake of the probe", "setting": "BT474", "result": "take up the probe readily"}, {"measurement": "uptake of the probe", "setting": "MDA-MB 468", "result": "take up the probe readily"}, {"measurement": "presence of compound in tumor cells of xenograft", "setting": "xenografts (MDA-MB 468)", "result": "detected within the tumor cells"}, {"measurement": "accumulation in splenocytes", "setting": "[1]; FIG. 10A", "result": "little accumulation"}, {"measurement": "accumulation in liver cells", "setting": "[1]; FIG. 10B", "result": "little accumulation"}, {"measurement": "accumulation in tumor cells", "setting": "[1]; FIG. 10C", "result": "high degree of accumulation"}, {"measurement": "FITC signal of tumor cells in frozen sections", "setting": "MDA-MB-468 tumor", "result": "intense FITC signal"}, {"measurement": "fluorescence elution profile of labeled purified Hsp90", "setting": "Hsp90", "result": "single peak was recovered by fluorescence that correlated with elution of Hsp90"}, {"measurement": "major peak of fluorescence of cell extract", "setting": "MCF cells; 60 minutes", "result": "correlates with elution of Hsp90"}, {"measurement": "effect of heat treatment on uptake", "setting": "MCF cells; 42° C. vs 37° C. for 60 minutes", "result": "increased uptake"}, {"measurement": "accumulation in tumors isolated from mice", "setting": "MDA MB 468 xenografts; indicated doses, IVIS imager or tumor cell extracts in plate reader, FIG. 14B, 14C", "result": "accumulates selectively within the tumor mass in a dose dependent manner"}, {"measurement": "accumulation in the xenograft, real time imaging", "setting": "MDA MB 468 xenografts; tail vein injection, 465ex/520em, FIG. 14A", "result": "rapid accumulation"}, {"measurement": "detection of HIV infected cells", "setting": "[2]; 48 hours of infection, 1 hour at 37° C., FIG. 16", "result": "can be used to detect cells infected with HIV"}, {"measurement": "recognition of uninfected cells", "setting": "[2]; FIG. 16 panel D", "result": "do not recognize uninfected cells"}]}
